The nature of data set [1]: Metabolic (microsomal) stability assay, human liver microsomes (HLM). The data set is classed as in vitro ADME. The following applies: predicted clearance as percent of liver blood flow, 1 μM. As to the method: The metabolic degradation of the test compound is assayed at 37° C. with pooled liver microsomes (mouse (MLM), rat (RLM) or human (HLM)). The final incubation volume of 48 μL pertime point contains TRIS buffer (pH 7.5; 0.1 M), magnesium chloride (6.5 mM), microsomal protein (0.5 mg/mL for mouse/rat, 1 mg/mL for human specimens) and the test compound at a final concentration of 1 μM. Following a short preincubation period at 37° C., the reactions are initiated by addition of 12 μL beta-nicotinamide adenine dinucleotide phosphate, reduced form (NADPH, 10 mM) and terminated by transferring an aliquot into solvent after different time points (0, 5, 15, 30, 60 min). Additionally, the NADPH-independent degradation is monitored in incubations without NADPH, terminated at the last time point by addition of acetonitrile. The quenched incubations are pelleted by centrifugation (4,000 rpm, 15 min). An aliquot of the supernatant is assayed by LC-MS/MS to quantify the concentration of parent compound in the individual samples.
In vitro intrinsic clearance (CLint, in vitro) is calculated from the time course of the disappearance of the test drug during the microsomal incubation. Each plot is fitted to the first-order elimination rate constant as C(t)═C0*exp(−ke*t), where C(t) and C0 are the concentration of unchanged test drug at incubation time t and that at preincubation and ke is the disappearance rate constant of the unchanged drug. Subsequently, CLint in vitro (μL min^−1·amount protein) values are converted to predicted CLint,in vivo (mL min^−1 kg^−1) from incubation parameters according to the equation CLint, in vivo=CLint, in vitro×(incubation volume (ml)/amount protein (mg))×(amount protein (mg)/g liver tissue)×(liver weight/body wt.).
For better across species comparison the predicted clearance is expressed as percent of the liver blood flow [% QH] (mL min^−1·kg^−1) in the individual species. In general, high stability (corresponding to low % QH) of the compounds across species is desired.

The next data set has as its system SK-CO-1 cells. As to the kind of experiment: SK-CO-1 CTG proliferation assay (120 h) (CRC, G12V). The data set is classed as cell-based. As to conditions: Homo sapiens; SK-CO-1 cells (CRC, G12V), CTG 120 h. How it is done:
SK-CO-1 CTG Proliferation Assay (120 h) (CRC, G12V)
SK-CO-1 cells (ATCC HTB-39) are dispensed into 384-well plates, flat and clear bottom (Greiner, PNr. 781091) at a density of 500 cells per well in 60 μL EMEM (Sigma M5650)+10% Fetal Calf Serum (HyClone, PNr.: SH30084.03) and incubated at 37° C. in a CO2 incubator overnight. The next day, compounds (10 mM stock in DMSO) are added with the ECHO acoustic liquid handler system (Beckman Coulter), including DMSO controls. Plates are incubated for 120 h, and cell viability is measured using CellTiter-Glo luminescent cell viability reagent (Promega product code G7570). Viability (stated as percent of control) is defined as relative luminescence units RLU of each well divided by the RLU of cells in DMSO controls. IC50 values are determined from viability measurements by non-linear regression using a four-parameter model.

The test system of data set [2] is KRAS G12C-dependent Ba/F3 cells. As to the kind of experiment: Ba/F3 proliferation assay, KRAS G12C. It is filed as cell-based. The following applies: Mus musculus, BaF3, 72 h, AlamarBlue. As to the method: (§1) Plasmids containing KRASG12 mutants (i.e. […], G12C, G12V) are obtained from GeneScript. To generate KRASG12-dependent Ba/F3 models, Ba/F3 cells are transduced with retroviruses containing vectors that harbor KRASG12 isoforms. Platinum-E cells (Cell Biolabs) are used for retrovirus packaging. Retrovirus is added to Ba/F3 cells. To ensure infection, 4 μg/mL polybrene is added and cells are spinfected. […] Cells with an infection efficiency of 10% to 20% are further cultivated and puromycin selection with 1 μg/mL is initiated. As a control, parental Ba/F3 cells are used to show selection status. Selection is considered successful when parental Ba/F3 cells cultures died. To evaluate the transforming potential of KRASG12 mutations, the growth medium is no longer supplemented with IL-3. Ba/F3 cells harboring the empty vector are used as a control. Approximately ten days before conducting the experiments, puromycin is left out.
(§2) Compounds are added using an Access Labcyte Workstation with a Labcyte Echo 550 or 555 accoustic dispenser. All treatments are performed in technical duplicates. […] AlamarBlue™ (ThermoFisher), a viability stain, is added and fluorescence measured in the PerkinElmer Envision HTS Multilabel Reader. The raw data are imported into and analyzed with the Boehringer Ingelheim proprietary software MegaLab (curve fitting based on the program PRISM, GraphPad Inc.).
In general terms: Alamar Blue is a resazurin reagent that responds to reducing activity.

In another data set the test system is NCI-H2122 cells. The experiment in a line: NCI-H2122 CTG proliferation assay (120 h) (NSCLC, G12C). It is filed as cell-based. As to conditions: Homo sapiens. As to the method: NCI-H2122 CTG Proliferation Assay (120 h) (NSCLC, G12C)
The CTG assay is designed to measure quantitatively the proliferation of NCI-H2122 cells (ATCC CRL-5985), using the CellTiter Glow Assay Kit (Promega G7571). Cells are grown in RPMI medium (ATCC) supplemented with Fetal Calf Serum (Life Technologies, Gibco BRL, Cat. No. 10270-106). On “day 0” 200 NCI-H2122 cells are seeded in 60 μL RPMI ATCC+10% FCS+Penstrep in a black 384-well plate, flat and clear bottom (Greiner, PNr. 781091). Cells are then incubated in the plates at 37° C. in a CO2 incubator overnight. On day 1, compounds (10 mM stock in DMSO) are added with the ECHO acoustic liquid handler system (Beckman Coulter), including DMSO controls. Plates are incubated for 120 h, and cell viability is measured using CellTiter-Glo luminescent cell viability reagent (Promega product code G7570). Viability (stated as percent of control) is defined as relative luminescence units RLU of each well divided by the RLU of cells in DMSO controls. IC50 values are determined from viability measurements by non-linear regression using a four parameter model.

For data set [3], the system named is KRAS G12V-dependent Ba/F3 cells. The experiment in a line: Ba/F3 proliferation assay, KRAS G12V.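 Also: proliferation IC50 in KRAS G12V-dependent Ba/F3 cells read by AlamarBlue.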 The data set is classed as cell-based. The following applies: Mus musculus, BaF3, 72 h, AlamarBlue. How it is done: as §1, §2

In general, IC50 refers to the point on the concentration scale where inhibition reaches its midpoint. A lower IC50 goes with higher potency. On to `CO[C@@H]1C[C@@H]([C@H](C)Oc2cc(-n3ccnc3)nc(-c3noc4c3CCC[C@@]43CCCc4sc(N)c(C#N)c43)n2)N(C)C1` [II-58], for which the “HLM QH” value in data set [1] is given as 46%. For the same compound, the 50% inhibitory concentration (IC50) in the data set on SK-CO-1 cells is 90 nM; in data set [2] it was 41 nM; in the data set on NCI-H2122 cells, 904 nM; in data set [3], 9 nM.
In the same order, the values of `C[C@H](Oc1cc(N2CCC[C@@H](O)C2)nc(-c2noc3c2CCC[C@@]32CCCc3sc(N)c(C#N)c32)n1)[C@@H]1CCCN1C` [II-59] are less than 24%, 67 nM, 31 nM, 1350 nM and 31 nM.
The like results for `C[C@H](Oc1cc(N2CCOC3(CC3)C2)nc(-c2noc3c2CCC[C@@]32CCCc3sc(N)c(C#N)c32)n1)[C@@H]1CCCN1C` [II-61] were, in that order, less than 24%, 192 nM, 47 nM, 2340 nM and 38 nM.
The like results for `CO[C@@H]1C[C@@H]([C@H](C)Oc2cc(-c3cnn(C)n3)nc(-c3noc4c3CCC[C@@]43CCCc4sc(N)c(C#N)c43)n2)N(C)C1` [II-62] were, in that order, 58%, 280 nM, 34 nM, 4790 nM and 17 nM.
Consider `C[C@H](Oc1cc(N2Cc3cnn(C)c3C2)nc(-c2noc3c2CCC[C@@]32CCCc3sc(N)c(C#N)c32)n1)[C@@H]1CCCN1C` [II-63], for which the “HLM QH” value in data set [1] is less than 24%. For the same compound, the half-maximal inhibitory concentration (IC50) turned out to be 134 nM with SK-CO-1 cells, 114 nM in data set [2], 3390 nM with NCI-H2122 cells and 49 nM in data set [3].
In the same order, the values of `C[C@H](Oc1cc(N2CCNC2=O)nc(-c2noc3c2CCC[C@@]32CCCc3sc(N)c(C#N)c32)n1)[C@@H]1CCCN1C` [II-64] are 27%, 24 nM, 9 nM, 6360 nM and 5 nM.
For `C[C@H](Oc1cc(-n2cnc3cccnc32)nc(-c2noc3c2CCC[C@@]32CCCc3sc(N)c(C#N)c32)n1)[C@@H]1CCCN1C` [II-65], the “HLM QH” value in data set [1] is listed as less than 24%. The 50% inhibitory concentration (IC50) in the data set on SK-CO-1 cells is 360 nM; in data set [2] it was 97 nM; in the data set with NCI-H2122 cells, 2550 nM; in data set [3] it was 40 nM.
Regarding `C[C@H](Oc1cc(N2CC[C@@H](O)C2)nc(-c2noc3c2CCC[C@@]32CCCc3sc(N)c(C#N)c32)n1)[C@@H]1CCCN1C` [II-66], in data set [1], the “HLM QH” value is given as less than 24%. The 50% inhibitory concentration (IC50) in the data set on SK-CO-1 cells is 76 nM; in data set [2], 54 nM; in the data set with NCI-H2122 cells, 5010 nM; in data set [3], 29 nM.
In the same order, the values of `C[C@H](Oc1cc(C2=CCOCC2)nc(-c2noc3c2CCC[C@@]32CCCc3sc(N)c(C#N)c32)n1)[C@@H]1CCCN1C` [II-67] are less than 24%, 60 nM, 28 nM, 1300 nM and 15 nM.
Take `Cc1cn(C)nc1-c1cc(O[C@@H](C)[C@@H]2CCCN2C)nc(-c2noc3c2CCC[C@@]32CCCc3sc(N)c(C#N)c32)n1` [II-68]: the “HLM QH” value in data set [1] is less than 24%. Further, the IC50 was 5570 nM in the data set on SK-CO-1 cells, 56 nM in data set [2], 1230 nM in the data set on NCI-H2122 cells and 23 nM in data set [3].
In the same order, the values of `C[C@H](Oc1cc(-n2ccnc2)nc(-c2noc3c2CCC[C@@]32CCCc3sc(N)c(C#N)c32)n1)[C@@H]1CCCN1C` [II-69] are less than 24%, 115 nM, 18 nM, 515 nM and 7 nM.
For `C[C@H](Oc1cc(-n2cncn2)nc(-c2noc3c2CCC[C@@]32CCCc3sc(N)c(C#N)c32)n1)[C@@H]1CCCN1C` [II-70], the “HLM QH” value in data set [1] is 61%. Moreover, the IC50 stood at 28 nM in the data set with SK-CO-1 cells, 25 nM in data set [2], 891 nM in the data set on NCI-H2122 cells and 5 nM in data set [3].
